Assay results from paper PMC4844649, “A first-in-Asian phase 1 study to evaluate safety, pharmacokinetics and clinical activity of VS-6063, a focal adhesion kinase (FAK) inhibitor in Japanese patients with advanced solid tumors” (Cancer Chemotherapy and Pharmacology, 2016).
Several values for one entry are separate records, joined by “and”; a condition that tells them apart may be missing. Equal entries are not always repeated. Entries after “also recorded” stand apart in the source; their conditions may differ. Where two headings read alike, the source gives them in different places.

Tests used:
[1] = phase 1 plasma pharmacokinetics, Cycle 1 Days 1 and 15; format: in vivo, human; settings: for V z, individual values: Day 15, N = 2, individual values are presented; for half-life / Cmax / AUC(0-t) / Tmax / AUC(0-inf): human, plasma; for AUC(0-t): read-out: AUC0–12h, GM (CV %)
Protocol: Pharmacokinetic samples were to be collected for determination of VS-6063 concentration and potential metabolites at the time points of Pre-dose (within 30 min of VS-6063 dosing), postdose (15 min, 30 min, and 1, 2, 4, 8, 12, and 24 h after VS-6063 administration) during Cycle 1 on Days 1 and 15. The analytical laboratory measured plasma concentrations using a validated method. Phoenix WinNonlin (v 6.3, Pharsight Inc., Mountain View, CA) was used to estimate all pharmacokinetic parameters using the non-compartmental analysis tool and the plasma model. Cmax and Tmax were determined by direct assessment (no calculations) of the concentration versus time data. All AUC calculations followed the linear trapezoidal rule. As data permitted, the terminal elimination rate constant (lambda z, λz) for VS-6063 data was calculated. Lambda z was determined by the slope of the regression line of the natural log transformed concentrations versus time with at least three data points not including the Cmax and a correlation coefficient (R^2) of regression >0.90. In instances where the λz range was not at least twofold greater than the calculated half-life, the resulting values (AUCINF, CL/F and Vz/F) were deemed unreliable and were not reported, although the half-life will be calculated and reported if the λz range met the R^2 requirements. The following PK parameters were to be calculated: oral clearance (CL/F), maximum concentration (Cmax), Tmax, half-life (T1/2), area under the curve (AUC), and other relevant parameters.

recombinant human Pyk2 = settings: in vitro; background statement, no reference given; read-out: IC50, inhibition of recombinant human Pyk2 activity; cited from earlier work
[2] = po, 200 mg, 200 mg BID oral, n = 3, Day 1
[3] = po, 200 mg, 200 mg BID oral, n = 3, Day 15
[4] = po, 400 mg, 400 mg BID oral, n = 3, Day 1
[5] = po, 400 mg, 400 mg BID oral, n = 3, Day 15
[6] = po, 600 mg, 600 mg BID oral, n = 3, Day 1
[7] = po, 600 mg, 600 mg BID oral, n = 3, Day 15

## CNC(=O)c1ccc(Nc2ncc(C(F)(F)F)c(NCc3nccnc3N(C)S(C)(=O)=O)n2)cc1 [VS-6063, defactinib]
[1]; 200 mg BID oral
  V z, individual values: 334 L and 99.6 L
[1]; 400 mg BID (RP2D)
  exposure compared with that previously reported in non-Japanese subjects: comparable; also recorded: consistent with previously reported data in non-Japanese patients; also recorded: comparable to that previously reported in non-Japanese patients
[1]; 600 mg BID oral
  V z, individual values: 158 L and 3060 L
[1]; 600 mg versus 400 mg BID
  increase in exposure at doses above 400 mg BID: did not result in a significant increase in VS-6063 exposure
[1]; 200–600 mg BID
  dose proportionality of plasma exposure (Cmax and AUC): less than dose proportional
[1]; oral, 200–600 mg BID, Days 1 and 15, read-out: median half-life values, range across all dose regimens and both PK study days
  half-life: 2.3 to 4.3 h
[1]; [2]
  Cmax: 630 ng/mL
  AUC(0-t): 3780 ng·h/mL
[1]; po, 200 mg, 200 mg BID oral, n = 3, Day 1, read-out: T max, median (range)
  Tmax: 2 h
[1]; po, 200 mg, 200 mg BID oral, n = 3, Day 1, read-out: t 1/2, median (range) (converted)
  half-life: 4.3 h
[1]; [3]
  Cmax: 930 ng/mL
  AUC(0-t): 6240 ng·h/mL
[1]; po, 200 mg, 200 mg BID oral, n = 3, Day 15, read-out: T max, median (range)
  Tmax: 2 h
[1]; po, 200 mg, 200 mg BID oral, n = 3, Day 15, read-out: t 1/2, median (range) (converted)
  half-life: 2.95 h
[1]; [4]
  Cmax: 670 ng/mL
  AUC(0-t): 3370 ng·h/mL
[1]; po, 400 mg, 400 mg BID oral, n = 3, Day 1, read-out: T max, median (range)
  Tmax: 2 h
[1]; po, 400 mg, 400 mg BID oral, n = 3, Day 1, read-out: t 1/2, median (range) (converted)
  half-life: 2.45 h
[1]; [5]
  Cmax: 960 ng/mL
  AUC(0-t): 5710 ng·h/mL
[1]; po, 400 mg, 400 mg BID oral, n = 3, Day 15, read-out: T max, median (range)
  Tmax: 2 h
[1]; po, 400 mg, 400 mg BID oral, n = 3, Day 15, read-out: t 1/2, median (range) (converted)
  half-life: 3 h
[1]; [6]
  Cmax: 610 ng/mL
  AUC(0-t): 2680 ng·h/mL
[1]; po, 600 mg, 600 mg BID oral, n = 3, Day 1, read-out: T max, median (range)
  Tmax: 2 h
[1]; po, 600 mg, 600 mg BID oral, n = 3, Day 1, read-out: t 1/2, median (range) (converted)
  half-life: 2.79 h
[1]; [7]
  Cmax: 980 ng/mL
  AUC(0-t): 4880 ng·h/mL
[1]; po, 600 mg, 600 mg BID oral, n = 3, Day 15, read-out: T max, median (range)
  Tmax: 2 h
[1]; po, 600 mg, 600 mg BID oral, n = 3, Day 15, read-out: t 1/2, median (range) (converted)
  half-life: 2.27 h
[1]; po, oral doses of 200–600 mg BID, all cohorts, read-out: Tmax range
  Tmax: 0.5 to 4 h
[1]; po, oral doses of 200–600 mg BID, all cohorts, read-out: median Tmax
  Tmax: 2 h
[1]; 200 mg BID oral, n = 3, Day 1
  AUC(0-inf): 4390 ng·h/mL
[1]; 400 mg BID oral, n = 3, Day 1
  AUC(0-inf): 3840 ng·h/mL
[1]; 600 mg BID oral, n = 3, Day 1
  AUC(0-inf): 3000 ng·h/mL
Recombinant human Pyk2
  IC50: 0.6 nM
